Assay results reported in patent publication US20230099441A1, “HETEROCYCLIC COMPOUND, APPLICATION THEREOF, AND COMPOSITION CONTAINING SAME” (GenEros Biopharma Ltd., priority 2019, published 2023).

Tests used:
[1] = test system: STAT5 Y694 phosphorylation; assay: Protein electrophoresis and blotting of STAT5 Y694 phosphorylation in Jurkat cells stimulated with human interferon beta; assay type: cell-based; conditions: for Inhibiting Ratio (0% for vehicle control): 1 hour pretreatment, 20 ng/ml human interferon beta 30 minutes, pSTAT5/GAPDH; for Example of Effect 1: Inhibiting Ability (Protein Electrophoresis and Blotting): observed pSTAT5 bands at 10 μM and 100 μM
Procedure, shortened: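 Serum-free Jurkat cells pretreated with compound 1 h, then stimulated with 20 ng/ml human interferon beta for 30 min at 37° C. pSTAT5 measured by western blot with chemiluminescence, normalized to GAPDH and expressed as percent of DMSO control.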

[2] = test system: STAT5 Y694 phosphorylation; assay: HTRF experiment: STAT5 Y694 phosphorylation in Hela cells stimulated with human interferon beta; assay type: cell-based; conditions: 2 hours pretreatment, 10 nM human interferon beta 30 minutes
Procedure: Example of Effect 3: HTRF Experiment
Human Interferon 3 (IFN-0) (GenScript, Cat #P01574), STAT5 Y694 phosphorylation detection kit (STAT5 phospho-Y694 kit) (Cisbio; Cat #64AT5PEG).
Hela cells (ATCC American Standard Culture Center, CCL-2) were cultured in a 96-well plate at a density of 3×10^4 cells/well with DMEM medium containing 5% fetal bovine serum and maintained at 37° C. in a humidified incubator with 5% carbon dioxide overnight. On the second day, the original DMEM medium in the 96-well plate was sucked dry, and an equal volume of medium containing different concentrations of compounds (the mother liquor of the compound prepared by dimethyl sulfoxide was diluted in the medium at the required concentration) was added for pretreatment for 2 hours, and then it was placed in an incubator at 37° C. Then human interferon beta with a final concentration of 10 nM was added to stimulate, and it was gently shaken to mix well and then placed in an incubator at 37° C. for 30 minutes.
The medium was removed, an appropriate volume of PBS was added to wash, and then it was sucked dry. Then 40 microliters of 1× Lysis Buffer was added to each well and it was stood for 30 minutes at room temperature (1 ml 1× lysate preparation: 740 μl ddH2O was added to 250 μl 4× lysate and 10 μl Blocking reagent and it was mixed thoroughly). After 30 minutes, the cells were repeatedly blown until the lysis solution was not viscous (avoiding blowing out bubbles) to achieve sufficient lysis.
After overnight incubation, the signals of 665 nm and 620 nm were detected in a multifunctional microplate reader. The calculation formula for the detection of STAT5 Y694 phosphorylation is: Ratio=[(signal 665 nm)/(signal 620 nm)]×10^4. Treatment with dimethyl sulfoxide alone was the baseline control (Ratiobase), and the human interferon β stimulation without addition of the compound was the STAT5 Y694 full phosphorylation activation control (Ratiostimulation), the inhibition rate of STAT5 Y694 phosphorylation of different samples was normalized: Inhibition rate=[1−(RatioExperiment−Ratiobase)/(Ratiostimulation−Ratiobase)]*100.

SMILES: O=C(Cc1ccc(C(F)(F)F)cc1)N1CCC(n2c(=O)[nH]c3c(C(F)(F)F)cccc32)CC1 [GEN1-001, 4-(trifluoromethyl)-1-(1-(2-(4-(trifluoromethyl)phenyl)acetyl)piperidin-4-yl)-1H-benzo[d]imidazole-2(3H)-one]
- Inhibiting Ratio (0% for vehicle control) ([1]; 1 μM): 11.0%
- Inhibiting Ratio (0% for vehicle control) ([1]; 10 μM): 29.2%
- Inhibiting Ratio (0% for vehicle control) ([1]; 100 μM): 96.8%
- Example of Effect 1: Inhibiting Ability (Protein Electrophoresis and Blotting) [1]: +
- Example of Effect 3: Inhibiting Ratio@10 μM (HTRF Experiment) [2]: 3.75%

SMILES: O=C(Cc1ccc(C(F)(F)F)cc1)N1CCC(Nc2ccccc2O)CC1 [GEN1-056, 1-(4-((2-hydroxyphenyl)amino)piperidin-1-yl)-2-(4-(trifluoromethyl)phenyl)ethenone]
- Example of Effect 3: Inhibiting Ratio@10 μM (HTRF Experiment) [2]: 13.93%

SMILES: O=C(Cc1ccc(C(F)(F)F)cc1)NCCn1c(=O)[nH]c2ccccc21 [GEN1-062, N-(2-(2-oxo-2,3-dihydro-1H-benzo[d]imidazol-1-yl)ethyl)-2-(4-(trifluoromethyl)phenyl)acetamide]
- Example of Effect 3: Inhibiting Ratio@10 μM (HTRF Experiment) [2]: 5.12%

SMILES: O=C(Cc1ccc2[nH]ccc2c1)N1CCC(n2c(=O)[nH]c3ccccc32)CC1 [GEN1-077, 3-[1-[2-(1H-indol-5-yl)acetyl]-4-piperidinyl]-1H-benzimidazol-2-one]
- Example of Effect 3: Inhibiting Ratio@10 μM (HTRF Experiment) [2]: 34.25%

SMILES: CS(=O)(=O)Nc1ccc(CC(=O)N2CCC(n3c(=O)[nH]c4ccccc43)CC2)cc1 [GEN1-110]
- Example of Effect 3: Inhibiting Ratio@10 μM (HTRF Experiment) [2]: −10.49%

SMILES: O=C(Cc1ccc(C(F)(F)F)cc1)N1CCC(n2c(=O)c(=O)[nH]c3ccccc32)CC1 [GEN1-127, 1-(1-(2-(4-(trifluoromethyl)phenyl)acetyl)piperidin-4-yl)-1,4-dihydroquinoxaline-2,3-dione]
- Example of Effect 1: Inhibiting Ability (Protein Electrophoresis and Blotting) [1]: +

SMILES: O=C(Cc1ccc(C(F)(F)F)cc1)N1CCC(N2CC(=S)Nc3ccccc32)CC1 [GEN1-133]
- Example of Effect 3: Inhibiting Ratio@10 μM (HTRF Experiment) [2]: 31.27%

SMILES: O=C1CN(C2CCN(C(=O)Cc3ccc(C(F)(F)F)cc3)CC2)c2ccc(C(F)(F)F)cc2N1 [GEN1-135, 7-(trifluoromethyl)-4-(1-(2-(4-(trifluoromethyl)phenyl)acetyl)piperidin-4-yl)-3,4-dihydroquinoxaline-2(1H)-one]
- Example of Effect 3: Inhibiting Ratio@10 μM (HTRF Experiment) [2]: 22.91%

SMILES: O=C(Cc1ccc(C(F)(F)F)cc1)N1CCC(c2c(Br)[nH]c3ccccc23)CC1 [GEN1-139, 1-(4-(2-bromo-1H-indol-3-yl)piperidin-1-yl)-2-(4-(trifluoromethyl)phenyl)ethenone]
- Example of Effect 3: Inhibiting Ratio@10 μM (HTRF Experiment) [2]: 18.43%

SMILES: O=C(N1CCC(n2c(=O)[nH]c3cccc(C(F)(F)F)c32)CC1)C1(c2ccc(C(F)(F)F)cc2)CC1 [GEN1-146, 7-(trifluoromethyl)-1-(1-(1-(4-(trifluoromethyl)phenyl)cyclopropane-1-carbonyl)piperidin-4-yl)-1,3-dihydro-2H-benzo[d]imidazol-2-one]
- Example of Effect 1: Inhibiting Ability (Protein Electrophoresis and Blotting) [1]: +

SMILES: O=C(Cc1ccc(C(F)(F)F)cc1)N1CCC(N2C/C(=N\O)Nc3ccccc32)CC1 [GEN1-150, (E)-1-(4-(3-(hydroxyimino)-3,4-dihydroquinoxaline-1(2H)-yl)piperidin-1-yl)-2-(4-(trifluoromethyl)phenyl)ethane-1-one]
- Example of Effect 1: Inhibiting Ability (Protein Electrophoresis and Blotting) [1]: −

SMILES: O=C(Nc1ccccn1)NC1CCN(C(=O)Cc2ccc(C(F)(F)F)cc2)CC1 [GEN1-163, 1-(pyridin-2-yl)-3-(1-(2-(4-(trifluoromethyl)phenyl)acetyl)piperidin-4-yl)urea]
- Example of Effect 1: Inhibiting Ability (Protein Electrophoresis and Blotting) [1]: −

SMILES: NC(=O)N(c1ccccn1)C1CCN(C(=O)Cc2ccc(C(F)(F)F)cc2)CC1 [GEN1-164, 1-(pyridin-2-yl)-1-(1-(2-(4-(trifluoromethyl)phenyl)acetyl)piperidin-4-yl)urea]
- Example of Effect 1: Inhibiting Ability (Protein Electrophoresis and Blotting) [1]: −

SMILES: O=C1Nc2ccccc2C2(CCN(C(=O)Cc3ccc(C(F)(F)F)cc3)CC2)O1 [GEN1-178, 1′-(2-(4-(trifluoromethyl)phenyl)acetyl)spiro[benzo[d][1,3]oxazine-4,4′-piperidine]-2(1H)-one]
- Example of Effect 3: Inhibiting Ratio@10 μM (HTRF Experiment) [2]: 8.67%

SMILES: O=C1Nc2ccccc2C2(CCN(C(=O)Cc3ccc(C(F)(F)F)cc3)CC2)N1 [GEN1-179, 1-(2-(4-(trifluoromethyl)phenyl)acetyl)-1′H-spiro[piperidin-4,4′-quinazoline]-2′(3′H)-one]
- Example of Effect 3: Inhibiting Ratio@10 μM (HTRF Experiment) [2]: 10.11%

SMILES: CC(=O)N1CCN(C2CCN(C(=O)Cc3ccc(C(F)(F)F)cc3)CC2)c2ccccc21 [GEN1-243, 1-(4-(4-acetyl-3,4-dihydroquinoxaline-1(2H)-yl)piperidin-1-yl)-2-(4-(trifluoromethyl)phenyl)ethenone]
- Example of Effect 1: Inhibiting Ability (Protein Electrophoresis and Blotting) [1]: +

SMILES: O=C(Cc1ccc(C(F)(F)F)cc1)N1CCC(N2C(=O)NCc3cccc(C(F)(F)F)c32)CC1 [GEN1-265, 8-(trifluoromethyl)-1-(1-(2-(4-(trifluoromethyl)phenyl)acetyl)piperidin-4-yl)-3,4-dihydroquinazolin-2(1H)-one]
- Example of Effect 3: Inhibiting Ratio@10 μM (HTRF Experiment) [2]: 16.47%

SMILES: O=C(C[C@H]1CC[C@H](C(F)(F)F)CC1)N1CCC(n2c(=O)[nH]c3cccc(C(F)(F)F)c32)CC1 [GEN1-268, 7-(trifluoromethyl)-1-(1-(2-((1R,4R)-4-(trifluoromethyl)cyclohexyl)acetyl)piperidin-4-yl)-1H-benzo[d]imidazol-2(3H)-one]
- Example of Effect 3: Inhibiting Ratio@10 μM (HTRF Experiment) [2]: 58.21%

SMILES: COc1cccc(CC(=O)N2CCC(n3c(=O)[nH]c4ccccc43)CC2)c1 [GEN1-270]
- Example of Effect 3: Inhibiting Ratio@10 μM (HTRF Experiment) [2]: 21.10%

SMILES: COc1ccccc1CC(=O)N1CCC(n2c(=O)[nH]c3ccccc32)CC1 [GEN1-271]
- Example of Effect 3: Inhibiting Ratio@10 μM (HTRF Experiment) [2]: 9.33%

SMILES: O=C(Cc1ccc2c(c1)CCCN2)N1CCC(n2c(=O)[nH]c3cccc(C(F)(F)F)c32)CC1 [GEN1-276, 1-(1-(2-(1,2,3,4-tetrahydroquinolin-6-yl)acetyl)piperidin-4-yl)-7-(trifluoromethyl)-1,3-dihydro-2H-benzo[d]imidazol-2-one]
- Example of Effect 3: Inhibiting Ratio@10 μM (HTRF Experiment) [2]: 55.48%

SMILES: O=C(Cc1ccc(C(F)(F)F)cc1)N1CCC(n2c(=O)[nH]c3ccc(-c4ccccc4)c(C(F)(F)F)c32)CC1 [GEN1-277, 6-phenyl-7-(trifluoromethyl)-1-(1-(2-(4-(trifluoromethyl)phenyl)acetyl)piperidin-4-yl)-1H-benzo[d]imidazol-2(3H)-one]
- Example of Effect 3: Inhibiting Ratio@10 μM (HTRF Experiment) [2]: 6.52%

SMILES: COc1cc(CC(=O)N2CCC(n3c(=O)[nH]c4cccc(C(F)(F)F)c43)CC2)ccc1Cl [GEN1-278, 1-(1-(2-(4-chloro-3-methoxyphenyl)acetyl)piperidin-4-yl)-7-(trifluoromethyl)-1,3-dihydro-2H-benzo[d]imidazol-2-one]
- Example of Effect 3: Inhibiting Ratio@10 μM (HTRF Experiment) [2]: 73.74%

SMILES: O=C(Cc1ccc(Cl)c(OC(F)(F)F)c1)N1CCC(n2c(=O)[nH]c3cccc(C(F)(F)F)c32)CC1 [GEN1-280, 1-(1-(2-(4-chloro-3-(trifluoromethoxy)phenyl)acetyl)piperidin-4-yl)-7-(trifluoromethyl)-1,3-dihydro-2H-benzo[d]imidazol-2-one]
- Example of Effect 3: Inhibiting Ratio@10 μM (HTRF Experiment) [2]: 20.53%

SMILES: O=C(Cc1ccc(C(F)(F)F)cc1)N1CCC(n2c(=O)[nH]c3cccc(Cl)c32)CC1 [GEN1-281]
- Example of Effect 3: Inhibiting Ratio@10 μM (HTRF Experiment) [2]: 50.87%

SMILES: Cc1cccc2[nH]c(=O)n(C3CCN(C(=O)Cc4ccc(C(F)(F)F)cc4)CC3)c12 [GEN1-282]
- Example of Effect 3: Inhibiting Ratio@10 μM (HTRF Experiment) [2]: 49.93%

SMILES: CCOc1cccc(CC(=O)N2CCC(n3c(=O)[nH]c4ccccc43)CC2)c1 [GEN1-287]
- Example of Effect 3: Inhibiting Ratio@10 μM (HTRF Experiment) [2]: 8.72%

SMILES: O=C(Cc1ccc(C(F)(F)F)cc1)N1CCC(n2c(=O)[nH]c3cccc(F)c32)CC1 [GEN1-289]
- Example of Effect 3: Inhibiting Ratio@10 μM (HTRF Experiment) [2]: 6.86%

SMILES: O=C(Cc1ccc(C(F)(F)F)cc1)N1CCC(n2c(=O)[nH]c3cccc(Br)c32)CC1 [GEN1-290]
- Example of Effect 3: Inhibiting Ratio@10 μM (HTRF Experiment) [2]: 57.51%

SMILES: O=C(Cc1ccc2ncccc2c1)N1CCC(n2c(=O)[nH]c3cccc(Cl)c32)CC1 [GEN1-291]
- Example of Effect 3: Inhibiting Ratio@10 μM (HTRF Experiment) [2]: 70.98%

SMILES: Cc1cccc2[nH]c(=O)n(C3CCN(C(=O)Cc4ccc5ncccc5c4)CC3)c12 [GEN1-292, 7-methyl-1-(1-(2-(quinolin-6-yl)acetyl)piperidin-4-yl)-1,3-dihydro-2H-benzo[d]imidazol-2-one]
- Example of Effect 3: Inhibiting Ratio@10 μM (HTRF Experiment) [2]: 59.63%

SMILES: O=C(Cc1ccc2ncccc2c1)N1CCC(n2c(=O)[nH]c3cc(Cl)ccc32)CC1 [GEN1-294]
- Example of Effect 3: Inhibiting Ratio@10 μM (HTRF Experiment) [2]: 1.85%
